Measurements: patent publication EP1295874A2, “Retroviral protease inhibiting compounds” (Abbott Laboratories, priority 1995, dated 1997)

Tests used:
HIV protease = target: T1, HIV protease (Human immunodeficiency virus type 1 group M subtype B, UniProt P04585); assay: Fluorogenic Assay for Screening Inhibitors of HIV Protease; assay type: biochemical; conditions: read-out: Percent Inhibition; for inhibition at 0.0005 µM: Inhibitor Concentration 0.5 nanomolar
T1 construct: HIV protease consists of two identical subunits, each of which has 99 amino acid residues
Experimental: The inhibitory potency of the compound of the invention can be determined by the following method.
The compound of the invention is dissolved in DMSO and a small aliquot further diluted with DMSO to 100 times the final concentration desired for testing. The reaction is carried out in a 6 X 50 mm tube in a total volume of 300 microliters. The final concentrations of the components in the reaction buffer are: 125 mM sodium acetate, 1 M sodium chloride, 5 mM dithiothreitol, 0.5 mg/ml bovine serum albumin, 1.3 µM fluorogenic substrate, 2% (v/v) dimethylsulfoxide, pH 4.5. After addition of inhibitor, the reaction mixture is placed in the fluorometer cell holder and incubated at 30°C for several minutes. The reaction is initiated by the addition of a small aliquot of cold HIV protease. The fluorescence intensity (excitation 340 nm, emmision 490 nM) is recorded as a function of time. The reaction rate is determined for the first six to eight minutes. The observed rate is directly proportional to the moles of substrate cleaved per unit time. The percent inhibition is 100 X (1 - (rate in presence of inhibitor)/(rate in absence of inhibitor)).
Fluorogenic substrate: Dabcyl-Gaba-Ser-Gln-Asn-Tyr-Pro-lle-Val-Gln-EDANS wherein DABCYL = 4-(4-dimethylamino-phenyl)azobenzoic acid, Gaba = γ-aminobutyric acid, and EDANS = 5-((2-aminoethyl)amino)-naphthalene-1-sulfonic acid.

HIVIIIB = assay: Antiviral activity (anti-HIV activity) in MT4 cells, MTT readout; assay type: cell-based; conditions: Human immunodeficiency virus 1, MT4, 120 h, read-out: IC50 (µM, 0% plasma)
Description: (§1) The anti-HIV activity of the compound of the invention can be determined in MT4 cells according to the following procedure. MT4 cells were infected with cell-free supernatant of HIVIIIB (previously frozen with known 50% tissue culture infectious dose (TCID50) at 0.003 multiplicity of infection (MOI) for one hour. After one hour infection, cells were washed twice to remove residual viruses, resuspended in culture media and seeded into 96-well tissue culture plates at 1x10^4 cells per well with various half-log dilutions of compounds. Uninfected cells are included as toxicity and cell controls. RPMI 1640 media (Gibco ) with 10% fetal bovine serum were used as culture media. Various concentrations of human serum (Sigma) 50%, 25% and 12.5% were added to culture media resulting in final concentration of 60%, 35% and 22.5% total serum. All assay plates were incubated in 37 deg. cent. incubator for 5 days. MTT (sigma, 5 mg/ml stock in PBS) was added to all wells at 25 ul per well, incubate for 4 hours. 20%SDS with 0.02 N HCl in water was added at 50 ul per well to lyse cellls. Plates incubated overnight for complete lyses were read on a microtitre plate reader at 570/650 nm wavelengths to determine cell optical density (O.D.). Raw data were analysed for percent inhibition by the following formula: (O.D. test well - O.D. virus control)/(O.D. cell control -O.D. virus control)x100 [formula] The 50% effective concentration (EC50) was calculated by the median effect equation (Chou, 1975,Proc. Int. Cong. Pharmacol. 6th p. 619) to determine the efficacy of compound. The 50% lethal concentration (LC50) was calculated using uninfected MT4 cells.
(§2) Under these conditions, the following data were obtained (n = 4 duplicate determinations: Table 2

[1] = 50% lethal concentration in uninfected MT4 cells (MTT); assay type: cell-based; conditions: human, read-out: LC50
Description: as §1, §2

| Structure (SMILES) | inhibition at 0.0005 µM (HIV protease) | IC50 (HIVIIIB) | CC50 at 120 h [1] | inhibition at 0.001 µM (HIV protease; Inhibitor Concentration 1.0 nanomolar) |
| --- | --- | --- | --- | --- |
| CC(C)(C)[C@@H](C(=O)N[C@@H](Cc1ccccc1)C[C@H](O)[C@H](Cc1ccccc1)NC(=O)OCc1cncs1)N1CCNC1=O [Example 7B, (2S,3S,5S)-2-(N-((5-Thiazolyl)-methoxycarbonyl)amino)-3-hydroxy-5-(2S-(1-imidazolidin-2-onyl)-3,3-dimethylbutanoyl)amino-1,6-diphenylhexane] | 67.1% | 0.204 µM | > 100 µM |  |
| Cc1cccc(C)c1OCC(=O)N[C@@H](Cc1ccccc1)[C@@H](O)C[C@H](Cc1ccccc1)NC(=O)[C@H](C(C)C)n1ccc(=O)[nH]c1=O [Example 23C, (2S,3S,5S)-2-(2,6-Dimethylphenoxyacetyl) amino-3-hydroxy-5-(2S-(1-dihydropyrimid-2,4-dionyl)-3-methyl-butanoyl) amino-1,6-diphenylhexane] | 86% |  |  |  |
| Cc1cccc(C)c1OCC(=O)N[C@@H](Cc1ccccc1)[C@@H](O)C[C@H](Cc1ccccc1)NC(=O)[C@H](C(C)C)N1CCOC1=O [Example 3C, (2S, 3S, 5S)-2-(2,6-Dimethylphenoxyacetyl) amino-3-hydroxy-5-[2S-(3-oxazolidin-2-onyl)-3-methyl-butanoyl] amino-1,6-diphenylhexane] | 86.9% | 0.025 µM | 49.5 µM |  |
| Cc1cccc(C)c1/C=C/C(=O)N[C@@H](Cc1ccccc1)[C@@H](O)C[C@H](Cc1ccccc1)NC(=O)[C@H](C(C)C)N1CCCNC1=O [Example 19E] | 68.5% | 0.395 µM | 17.9 µM |  |
| Cc1cccc(C)c1OCC(=O)N[C@@H](Cc1ccccc1)[C@@H](O)C[C@H](Cc1ccccc1)NC(=O)[C@H](C(C)C)N1CCNC1=S [Example 9B, (2S,3S,5S)-2-(2,6-Dimethylphenoxyacetyl)amino-3-hydroxy-5-(2S-(1-imidazolidin-2-thionyl)-3-methylbutanoyl)amino-1,6-diphenylhexane] | 62.6% | 0.272 µM | 19.3 µM |  |
| Cc1cc(F)cc(C)c1OCC(=O)N[C@@H](Cc1ccccc1)[C@@H](O)C[C@H](Cc1ccccc1)NC(=O)[C@H](C(C)C)N1CCNC1=O [Example 12B, (2S,3S,5S)-2-(4-Fluoro-2,6-dimethylphenoxyacetyl) amino-3-hydroxy-5-(2S-(1-imidazolidin-2-onyl)-3-methyl-butanoyl) amino-1,6-diphenylhexane] | 76.8% | 0.093 µM | 19.1 µM |  |
| Cc1cccc(C)c1OCC(=O)N[C@@H](Cc1ccccc1)[C@@H](O)C[C@H](Cc1ccccc1)NC(=O)[C@@H](N1CCNC1=O)C(C)(C)C [Example 8] | 55.6% | 0.019 µM | 17.8 µM |  |
| Cc1cccc(C)c1OCC(=O)N[C@@H](Cc1ccccc1)[C@@H](O)C[C@H](Cc1ccccc1)NC(=O)[C@H](C(C)C)N1CCNNC1=O [Example 26H, (2S,3S,5S)-2-(2,6-Dimethylphenoxyacetyl) amino-3-hydroxy-5[2S-(4-aza-1-tetrahydro-pyrimid-2-onyl)-3-methyl-butanoyl]amino-1,6-diphenylhexane] | 94.6% | 0.015 µM | 33 µM |  |
| Cc1cccc(C)c1CCC(=O)N[C@@H](Cc1ccccc1)[C@@H](O)C[C@H](Cc1ccccc1)NC(=O)[C@H](C(C)C)N1CCCNC1=O [Example 20D, (2S,3S,5S)-2-(3-(2,6-Dimethylphenyl)propanoyl) amino-3-hydroxy-5-(2S-(1-tetrahydropyrimidin-2-onyl)-3-methyl-butanoyl) amino-1,6-diphenylhexane] |  | 0.283 µM | 24.1 µM |  |
| Cc1cccc(C)c1OCC(=O)N[C@@H](Cc1ccccc1)[C@@H](O)C[C@H](Cc1ccccc1)NC(=O)[C@H](C(C)C)N1CC=NNC1=O [Example 30B, (2S,3S,5S)-2-(2,6-Dimethylphenoxyacetyl) amino-3-hydroxy-5[2S-(4-aza-4,5-dehydro-1-pyrimid-2-onyl)-3-methyl-butanoyl]amino-1,6-diphenylhexane] | 91% | 0.003 µM | 18 µM |  |
| Cc1cccc(C)c1OCC(=O)N[C@@H](Cc1ccccc1)[C@@H](O)C[C@H](NC(=O)[C@H](C(C)C)N1CCCNC1=O)C(C)C [Example 27D, (2S,3S,5S)-2-(2,6-Dimethylphenoxyacetyl) amino-3-hydroxy-5-[2S-(1-tetrahydro-pyrimid-2-onyl)-3-methylbutanoyl]amino-1-phenyl-6-methylheptane] | 92.9% | 0.03 µM | 56.2 µM |  |
| Cc1ncnc(C)c1OCC(=O)N[C@@H](Cc1ccccc1)[C@@H](O)C[C@H](Cc1ccccc1)NC(=O)[C@H](C(C)C)N1CCNC1=O [Example 13B, (2S,3S,5S)-2-(4,6-Dimethylpyrimidin-5-oxy-acetyl) amino-3-hydroxy-5-(2S-(1-imidazolidin-2-onyl)-3-methyl-butanoyl) amino-1,6-diphenylhexane] |  |  |  | 56.2% |
| Cc1cc(C)c(OCC(=O)N[C@@H](Cc2ccccc2)[C@@H](O)C[C@H](Cc2ccccc2)NC(=O)[C@H](C(C)C)N2CCNC2=O)c(C)c1 [Example 11B, (2S,3S,5S)-2-(2,4,6-Trimethylphenoxyacetyl) amino-3-hydroxy-5-(2S-(1-imidazolidin-2-onyl)-3-methylbutanoyl) amino-1,6-diphenylhexane] | 91.1% | 0.19 µM | 18.2 µM |  |
| Cc1ccnc(C)c1OCC(=O)N[C@@H](Cc1ccccc1)[C@@H](O)C[C@H](Cc1ccccc1)NC(=O)[C@H](C(C)C)N1CCNC1=O [Example 15, (2S,3S,5S)-2-(2,4-Dimethyl-pyridin-3-oxy-acetyl) amino-3-hydroxy-5-(2S-(1-imidazolidin-2-onyl)-3-methyl-butanoyl) amino-1,6-diphenylhexane] | 48% | 0.119 µM | > 100 µM |  |
| Cc1ccnc(C)c1OCC(=O)N[C@@H](Cc1ccccc1)[C@@H](O)C[C@H](Cc1ccccc1)NC(=O)[C@@H](N1CCNC1=O)C(C)(C)C [Example 14D, (2S,3S,5S)-2-(2,4-Dimethyl-pyridin-3-oxy-acetyl) amino-3-hydroxy-5-(2S-(1-imidazolidin-2-onyl)-3,3-dimethylbutanoyl) amino-1,6-diphenylhexane] | 52.7% | 0.053 µM | > 100 µM |  |
| Cc1cccc(C)c1OCC(=O)N[C@@H](Cc1ccccc1)[C@@H](O)C[C@H](Cc1ccccc1)NC(=O)[C@H](C(C)C)N1C(=O)CCC1=O [Example 18C, (2S,3S,5S)-2-(2,6-Dimethylphenoxyacetyl) amino-3-hydroxy-5-(2S-(1-pyrrolidin-2,5-dionyl)-3-methyl-butanoyl) amino-1,6-diphenylhexane] | 57.8% | 0.329 µM | 19.1 µM |  |
| Cc1cccc(C)c1OCC(=O)N[C@@H](Cc1ccccc1)[C@@H](O)C[C@H](Cc1ccccc1)NC(=O)[C@H](C(C)C)N1CCCC1=O [Example 17C, (2S,3S,5S)-2-(2,6-Dimethylphenoxyacetyl) amino-3-hydroxy-5-(2S-(1-pyrrolidin-2-onyl)-3-methyl-butanoyl) amino-1,6-diphenylhexane] | 87.2% | 0.051 µM | 19 µM |  |
| CC(C)[C@@H](C(=O)N[C@@H](Cc1ccccc1)C[C@H](O)[C@H](Cc1ccccc1)NC(=O)O[C@@H]1CCS(=O)(=O)[C@@H]1C(C)C)N1CCCNC1=O [Example 22E, (2S,3S,5S)-2-(cis(±)-1,1-dioxo-2-isopropyl-3-tetrahydrothiophenoxy)amino-3-hydroxy-5-(2S-(1-tetrahydropyrimid-2-onyl)-3-methylbutanoyl)amino-1,6-diphenylhexane] | 71.8% |  |  |  |
